Laboratory results: the supplement of paper PMC12076712

How the values were obtained:
Test in all cases: pIC50, kinobeads binding competition
Conditions in all cases: cell material: Jurkat lysate
MAST1 = MAST1 (UniProt Q9Y2H9)
ROCK2 = ROCK2 (UniProt O75116)
TP53RK = molecular target: T1, TP53RK (UniProt Q96S44)
T1 sequence (whole entry): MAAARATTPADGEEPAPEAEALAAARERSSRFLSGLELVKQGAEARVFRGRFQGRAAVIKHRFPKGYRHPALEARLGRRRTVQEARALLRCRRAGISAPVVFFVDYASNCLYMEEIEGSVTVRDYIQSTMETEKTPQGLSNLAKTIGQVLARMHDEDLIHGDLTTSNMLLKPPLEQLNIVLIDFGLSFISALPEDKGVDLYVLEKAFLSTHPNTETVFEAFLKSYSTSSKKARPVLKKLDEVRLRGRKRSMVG

UniProt O96017 = molecular target: UniProt O96017
UniProt P25098 = molecular target: T2, UniProt P25098
T2 sequence (whole entry): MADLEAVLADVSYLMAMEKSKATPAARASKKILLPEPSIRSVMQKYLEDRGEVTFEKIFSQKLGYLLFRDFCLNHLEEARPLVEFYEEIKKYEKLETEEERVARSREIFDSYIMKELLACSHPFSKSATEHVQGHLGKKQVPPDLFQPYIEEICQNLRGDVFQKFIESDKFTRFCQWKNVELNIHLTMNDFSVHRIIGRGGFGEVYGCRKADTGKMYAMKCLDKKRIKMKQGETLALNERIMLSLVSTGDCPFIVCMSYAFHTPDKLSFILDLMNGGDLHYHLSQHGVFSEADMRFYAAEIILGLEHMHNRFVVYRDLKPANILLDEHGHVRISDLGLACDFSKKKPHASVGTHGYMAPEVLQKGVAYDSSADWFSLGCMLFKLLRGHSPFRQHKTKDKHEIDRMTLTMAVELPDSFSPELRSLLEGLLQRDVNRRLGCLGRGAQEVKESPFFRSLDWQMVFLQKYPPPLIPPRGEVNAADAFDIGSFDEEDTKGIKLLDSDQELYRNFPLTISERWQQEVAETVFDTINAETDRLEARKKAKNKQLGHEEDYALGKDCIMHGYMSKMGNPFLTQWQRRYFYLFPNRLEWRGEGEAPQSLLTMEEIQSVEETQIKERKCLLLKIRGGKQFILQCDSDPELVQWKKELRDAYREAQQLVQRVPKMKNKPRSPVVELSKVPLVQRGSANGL

UniProt Q16512 = molecular target: UniProt Q16512
UniProt Q5VT25 = molecular target: UniProt Q5VT25
UniProt Q99683 = molecular target: T3, UniProt Q99683
T3 sequence (whole entry): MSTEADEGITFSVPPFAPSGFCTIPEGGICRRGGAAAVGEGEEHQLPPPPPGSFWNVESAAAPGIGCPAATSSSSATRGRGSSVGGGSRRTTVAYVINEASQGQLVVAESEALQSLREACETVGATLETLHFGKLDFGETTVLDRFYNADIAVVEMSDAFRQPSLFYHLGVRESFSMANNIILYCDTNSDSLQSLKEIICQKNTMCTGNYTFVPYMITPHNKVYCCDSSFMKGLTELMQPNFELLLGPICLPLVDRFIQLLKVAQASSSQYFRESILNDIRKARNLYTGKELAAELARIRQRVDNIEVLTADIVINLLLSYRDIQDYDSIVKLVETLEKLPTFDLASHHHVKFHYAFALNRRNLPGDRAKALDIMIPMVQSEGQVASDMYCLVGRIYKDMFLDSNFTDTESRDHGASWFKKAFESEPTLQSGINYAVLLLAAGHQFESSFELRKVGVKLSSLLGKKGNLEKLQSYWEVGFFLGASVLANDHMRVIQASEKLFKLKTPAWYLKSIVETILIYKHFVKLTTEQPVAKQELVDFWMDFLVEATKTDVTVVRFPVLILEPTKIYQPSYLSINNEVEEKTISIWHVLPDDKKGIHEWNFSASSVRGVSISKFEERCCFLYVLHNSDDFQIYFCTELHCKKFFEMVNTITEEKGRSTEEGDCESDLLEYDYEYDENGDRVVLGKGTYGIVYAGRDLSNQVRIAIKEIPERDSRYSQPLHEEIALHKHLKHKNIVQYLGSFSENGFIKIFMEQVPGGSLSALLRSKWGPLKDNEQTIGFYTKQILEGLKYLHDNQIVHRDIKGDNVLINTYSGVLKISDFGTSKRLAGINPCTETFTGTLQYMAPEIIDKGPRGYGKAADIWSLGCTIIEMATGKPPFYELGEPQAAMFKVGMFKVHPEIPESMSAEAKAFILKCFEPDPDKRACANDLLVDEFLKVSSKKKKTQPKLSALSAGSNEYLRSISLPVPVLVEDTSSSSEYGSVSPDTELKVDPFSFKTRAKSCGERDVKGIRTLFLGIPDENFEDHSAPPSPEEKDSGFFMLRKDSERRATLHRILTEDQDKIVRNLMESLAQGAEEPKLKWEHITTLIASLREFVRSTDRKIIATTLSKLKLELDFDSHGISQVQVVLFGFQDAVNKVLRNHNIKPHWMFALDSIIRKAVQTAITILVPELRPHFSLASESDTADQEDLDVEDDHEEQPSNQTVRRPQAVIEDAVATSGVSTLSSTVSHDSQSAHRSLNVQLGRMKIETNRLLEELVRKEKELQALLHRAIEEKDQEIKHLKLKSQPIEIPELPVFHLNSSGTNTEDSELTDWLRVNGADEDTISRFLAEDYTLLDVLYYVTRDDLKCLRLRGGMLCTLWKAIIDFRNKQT

UniProt Q9Y2K2 = molecular target: UniProt Q9Y2K2

Measured: pIC50

ROCK2, sequence (O75116 whole entry, looked up): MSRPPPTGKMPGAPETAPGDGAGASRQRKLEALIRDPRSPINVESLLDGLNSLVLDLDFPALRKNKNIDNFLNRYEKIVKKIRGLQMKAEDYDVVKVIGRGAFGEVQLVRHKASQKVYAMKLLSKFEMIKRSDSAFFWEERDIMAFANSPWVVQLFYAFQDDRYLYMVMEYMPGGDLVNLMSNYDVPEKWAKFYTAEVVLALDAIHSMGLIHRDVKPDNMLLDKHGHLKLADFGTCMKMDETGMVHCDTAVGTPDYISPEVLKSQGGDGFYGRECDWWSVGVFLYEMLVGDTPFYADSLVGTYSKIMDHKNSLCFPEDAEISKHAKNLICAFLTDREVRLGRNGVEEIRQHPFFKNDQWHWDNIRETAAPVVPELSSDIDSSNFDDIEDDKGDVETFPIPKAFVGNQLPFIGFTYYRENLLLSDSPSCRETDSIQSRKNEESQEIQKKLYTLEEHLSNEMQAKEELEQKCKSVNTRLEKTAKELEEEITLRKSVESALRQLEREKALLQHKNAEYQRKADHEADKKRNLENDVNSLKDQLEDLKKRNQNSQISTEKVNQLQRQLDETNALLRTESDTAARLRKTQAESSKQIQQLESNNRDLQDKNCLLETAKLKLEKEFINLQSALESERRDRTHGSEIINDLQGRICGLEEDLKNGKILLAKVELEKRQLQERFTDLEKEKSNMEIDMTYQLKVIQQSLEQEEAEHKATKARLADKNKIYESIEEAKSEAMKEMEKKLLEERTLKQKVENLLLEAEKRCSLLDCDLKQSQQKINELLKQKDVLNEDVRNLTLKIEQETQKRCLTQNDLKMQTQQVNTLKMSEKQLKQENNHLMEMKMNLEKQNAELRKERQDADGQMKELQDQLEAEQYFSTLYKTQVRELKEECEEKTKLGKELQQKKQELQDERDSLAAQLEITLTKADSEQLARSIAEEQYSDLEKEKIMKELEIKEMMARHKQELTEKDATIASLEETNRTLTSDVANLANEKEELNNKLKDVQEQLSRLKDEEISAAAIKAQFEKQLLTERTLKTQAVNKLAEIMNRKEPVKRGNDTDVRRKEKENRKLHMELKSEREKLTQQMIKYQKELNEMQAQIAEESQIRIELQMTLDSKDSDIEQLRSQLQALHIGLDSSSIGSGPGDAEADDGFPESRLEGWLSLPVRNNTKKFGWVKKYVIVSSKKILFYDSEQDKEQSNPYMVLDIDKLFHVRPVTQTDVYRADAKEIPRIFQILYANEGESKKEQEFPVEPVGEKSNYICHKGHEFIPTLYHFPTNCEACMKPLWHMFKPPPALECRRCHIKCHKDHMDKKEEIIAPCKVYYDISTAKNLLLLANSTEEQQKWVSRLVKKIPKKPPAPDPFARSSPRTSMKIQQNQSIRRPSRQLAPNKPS
MAST1, sequence (Q9Y2H9 whole entry, looked up): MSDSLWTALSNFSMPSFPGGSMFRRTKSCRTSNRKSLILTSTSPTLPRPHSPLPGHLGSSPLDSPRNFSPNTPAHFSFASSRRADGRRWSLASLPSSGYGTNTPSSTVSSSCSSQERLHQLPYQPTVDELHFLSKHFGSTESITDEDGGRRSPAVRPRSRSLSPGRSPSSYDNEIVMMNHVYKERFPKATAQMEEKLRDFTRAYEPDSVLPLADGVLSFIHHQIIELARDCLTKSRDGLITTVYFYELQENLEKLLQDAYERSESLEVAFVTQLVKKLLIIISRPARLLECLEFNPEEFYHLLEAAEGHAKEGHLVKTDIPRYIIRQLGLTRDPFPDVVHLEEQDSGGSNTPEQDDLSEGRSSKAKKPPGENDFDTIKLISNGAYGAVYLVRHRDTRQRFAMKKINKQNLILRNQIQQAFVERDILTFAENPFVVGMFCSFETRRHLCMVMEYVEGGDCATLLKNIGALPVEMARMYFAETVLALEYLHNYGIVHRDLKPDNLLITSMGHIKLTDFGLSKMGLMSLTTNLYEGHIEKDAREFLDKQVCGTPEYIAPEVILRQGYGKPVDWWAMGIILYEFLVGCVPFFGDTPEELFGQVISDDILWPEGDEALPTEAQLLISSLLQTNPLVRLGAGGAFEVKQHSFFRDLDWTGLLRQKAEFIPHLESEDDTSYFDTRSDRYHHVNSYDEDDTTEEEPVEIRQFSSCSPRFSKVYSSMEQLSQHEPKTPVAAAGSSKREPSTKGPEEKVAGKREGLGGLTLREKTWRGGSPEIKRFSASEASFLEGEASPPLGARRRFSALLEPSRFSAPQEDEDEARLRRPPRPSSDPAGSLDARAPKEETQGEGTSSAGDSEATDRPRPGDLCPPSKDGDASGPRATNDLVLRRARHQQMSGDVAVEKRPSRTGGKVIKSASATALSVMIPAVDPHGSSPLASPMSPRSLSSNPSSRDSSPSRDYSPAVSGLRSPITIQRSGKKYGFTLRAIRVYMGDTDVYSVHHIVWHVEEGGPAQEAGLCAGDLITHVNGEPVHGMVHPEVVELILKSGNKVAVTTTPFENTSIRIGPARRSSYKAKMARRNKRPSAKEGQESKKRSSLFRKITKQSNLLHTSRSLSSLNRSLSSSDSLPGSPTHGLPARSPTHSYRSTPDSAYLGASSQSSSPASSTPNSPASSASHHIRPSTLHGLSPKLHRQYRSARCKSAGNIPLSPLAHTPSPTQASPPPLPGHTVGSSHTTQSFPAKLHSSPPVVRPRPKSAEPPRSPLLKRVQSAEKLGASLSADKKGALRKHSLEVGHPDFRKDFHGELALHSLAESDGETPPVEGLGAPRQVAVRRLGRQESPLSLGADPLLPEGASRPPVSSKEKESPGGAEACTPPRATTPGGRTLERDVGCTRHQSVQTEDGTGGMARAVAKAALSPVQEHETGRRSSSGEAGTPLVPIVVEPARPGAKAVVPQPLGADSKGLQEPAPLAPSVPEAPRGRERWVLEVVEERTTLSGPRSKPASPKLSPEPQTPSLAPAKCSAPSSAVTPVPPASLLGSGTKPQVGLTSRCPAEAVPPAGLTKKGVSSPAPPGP
UniProt Q16512, sequence (Q16512 whole entry, looked up): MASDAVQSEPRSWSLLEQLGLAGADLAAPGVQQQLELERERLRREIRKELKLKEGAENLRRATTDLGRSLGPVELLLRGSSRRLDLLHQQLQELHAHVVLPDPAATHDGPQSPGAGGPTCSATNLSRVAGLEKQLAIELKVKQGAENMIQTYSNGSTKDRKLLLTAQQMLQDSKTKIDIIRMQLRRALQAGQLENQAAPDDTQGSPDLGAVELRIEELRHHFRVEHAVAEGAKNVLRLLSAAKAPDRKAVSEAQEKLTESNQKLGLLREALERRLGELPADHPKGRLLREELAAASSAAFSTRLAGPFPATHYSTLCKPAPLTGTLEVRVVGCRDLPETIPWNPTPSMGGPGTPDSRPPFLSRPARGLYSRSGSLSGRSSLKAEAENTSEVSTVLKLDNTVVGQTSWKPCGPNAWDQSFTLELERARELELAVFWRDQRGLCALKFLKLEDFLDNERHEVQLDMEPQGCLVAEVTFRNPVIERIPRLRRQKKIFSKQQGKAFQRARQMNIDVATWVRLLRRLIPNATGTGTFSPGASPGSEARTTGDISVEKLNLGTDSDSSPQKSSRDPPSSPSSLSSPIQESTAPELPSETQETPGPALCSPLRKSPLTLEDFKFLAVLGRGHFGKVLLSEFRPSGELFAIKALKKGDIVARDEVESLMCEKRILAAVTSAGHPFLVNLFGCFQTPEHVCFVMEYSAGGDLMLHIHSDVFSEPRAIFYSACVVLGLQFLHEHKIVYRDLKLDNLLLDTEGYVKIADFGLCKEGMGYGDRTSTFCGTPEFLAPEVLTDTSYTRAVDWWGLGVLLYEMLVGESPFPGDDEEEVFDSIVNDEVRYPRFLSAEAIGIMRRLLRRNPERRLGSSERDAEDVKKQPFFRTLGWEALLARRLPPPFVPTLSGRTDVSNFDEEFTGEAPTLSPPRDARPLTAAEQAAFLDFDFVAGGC
UniProt O96017, sequence (O96017 whole entry): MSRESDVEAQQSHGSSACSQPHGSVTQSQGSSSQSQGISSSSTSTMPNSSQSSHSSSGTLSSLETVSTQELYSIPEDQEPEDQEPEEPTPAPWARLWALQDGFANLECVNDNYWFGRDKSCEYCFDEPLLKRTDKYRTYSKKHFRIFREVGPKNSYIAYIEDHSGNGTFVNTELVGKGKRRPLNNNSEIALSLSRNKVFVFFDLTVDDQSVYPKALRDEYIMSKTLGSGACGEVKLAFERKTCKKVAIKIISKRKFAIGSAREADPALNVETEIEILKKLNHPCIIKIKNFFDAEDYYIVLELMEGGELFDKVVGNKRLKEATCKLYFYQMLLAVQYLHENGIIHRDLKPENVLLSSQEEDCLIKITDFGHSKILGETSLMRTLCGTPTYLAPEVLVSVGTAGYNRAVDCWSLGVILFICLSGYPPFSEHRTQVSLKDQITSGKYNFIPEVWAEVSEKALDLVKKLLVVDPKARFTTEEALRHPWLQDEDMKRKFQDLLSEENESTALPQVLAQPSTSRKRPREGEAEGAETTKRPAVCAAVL

CCc1cnn2c(NCc3ccc[n+]([O-])c3)cc(N3CCCC[C@H]3CCO)nc12 [dinaciclib]
< 4.52: all assays above
